Test results from ChEMBL document CHEMBL1141195, “Carbonic anhydrase inhibitors. The mitochondrial isozyme VB as a new target for sulfonamide and sulfamate inhibitors” (J Med Chem, 2005).
pKi: −log10 of the molar value.

Assays:
[1] = molecular target: Carbonic anhydrase 5A, mitochondrial (Homo sapiens, UniProt P35218)
[2] = molecular target: Carbonic anhydrase 5B, mitochondrial (Homo sapiens, UniProt Q9Y2D0)
Chain of Carbonic anhydrase 5B, mitochondrial (Q9Y2D0 whole entry): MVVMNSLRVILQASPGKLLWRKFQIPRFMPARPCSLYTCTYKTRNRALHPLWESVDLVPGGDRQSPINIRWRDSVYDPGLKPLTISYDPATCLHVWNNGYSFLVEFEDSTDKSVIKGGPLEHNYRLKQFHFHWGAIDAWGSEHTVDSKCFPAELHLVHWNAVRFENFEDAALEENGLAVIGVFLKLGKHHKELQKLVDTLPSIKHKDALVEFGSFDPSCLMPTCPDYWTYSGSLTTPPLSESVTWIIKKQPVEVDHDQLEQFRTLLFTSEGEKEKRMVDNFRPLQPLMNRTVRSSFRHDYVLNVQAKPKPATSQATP

Chain of Carbonic anhydrase 5A, mitochondrial (P35218 whole entry): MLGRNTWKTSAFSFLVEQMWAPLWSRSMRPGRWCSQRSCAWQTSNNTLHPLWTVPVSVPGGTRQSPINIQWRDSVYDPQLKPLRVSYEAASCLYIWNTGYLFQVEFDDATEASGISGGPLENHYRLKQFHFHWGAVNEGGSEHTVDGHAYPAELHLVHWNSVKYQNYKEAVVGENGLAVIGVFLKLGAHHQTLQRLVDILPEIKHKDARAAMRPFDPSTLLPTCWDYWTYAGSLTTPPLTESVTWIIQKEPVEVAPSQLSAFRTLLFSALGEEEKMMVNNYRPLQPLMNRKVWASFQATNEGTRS

| SMILES | pKi [1] | pKi [2] |
| --- | --- | --- |
| NNc1ccccc1S(N)(=O)=O | 5.02 | 5.47 |
| Nc1cc(Cl)c(S(N)(=O)=O)cc1S(N)(=O)=O | – | 5.21 |
| Nc1ccc(S(N)(=O)=O)cc1I | 5.03 | 5.48 |
| Nc1nccc(Nc2ccc(S(N)(=O)=O)cc2)n1 | 4.77 | 4.99 |
| Nc1ccccc1S(N)(=O)=O | 4.82 | 5.02 |
| Nc1ccc(S(N)(=O)=O)cc1Br | 5.12 | 5.45 |
| NS(=O)(=O)c1ccc(CCO)cc1 | 5.06 | 5.15 |
| Nc1ccc(S(N)(=O)=O)cc1F | 5.03 | 5.37 |
| NS(=O)(=O)c1ccc(CO)cc1 | 5.03 | 5.13 |
| NCCc1ccc(S(N)(=O)=O)cc1 | 4.37 | 5.05 |
| Nc1ccc(S(N)(=O)=O)cc1Cl | 5.13 | 5.37 |
| NNc1ccc(S(N)(=O)=O)cc1 | 5.11 | 5.46 |
| Nc1cc(C(F)(F)F)c(S(N)(=O)=O)cc1S(N)(=O)=O [2,4-DISULFAMYLTRIFLUOROMETHYLANILINE] | – | 5.18 |
| NCc1ccc(S(N)(=O)=O)cc1 [MAFENIDE] | 4.56 | 4.91 |
| Nc1ccc(S(N)(=O)=O)cc1 [SULFANILAMIDE] | 4.49 | – |

The next lines start with the values.

| pKi [1] | pKi [2] | SMILES |
| --- | --- | --- |
| 5.64 | 5.67 | Nc1nnc(S(N)(=O)=O)s1 |
| 6.75 | 7.62 | Nc1ccc(S(=O)(=O)NCc2ccc(S(N)(=O)=O)cc2)cc1 |
| 7.47 | 7.52 | Nc1ccc(S(=O)(=O)Nc2nnc(S(N)(=O)=O)s2)cc1 |
| 7.37 | 7.52 | NS(=O)(=O)c1nnc(-c2ccccc2Cl)s1 |
| 7.27 | 7.39 | NS(=O)(=O)c1nc2ccc(O)cc2s1 |
| 5.67 | 5.68 | Cn1nc(S(N)(=O)=O)sc1=N |
| 6.92 | 7.38 | Nc1ccc(S(=O)(=O)NCCc2ccc(S(N)(=O)=O)cc2)cc1 |
| 7.10 | 7.64 | NS(=O)(=O)c1ccc(S(=O)(=O)Nc2cccc3c(Cl)c[nH]c23)cc1 |
| 7.30 | 7.52 | CCN[C@H]1CN(CCCOC)S(=O)(=O)c2sc(S(N)(=O)=O)cc21 [BRINZOLAMIDE] |
| 5.58 | 5.81 | NS(=O)(=O)c1ccc(C(=O)O)cc1 [CARZENIDE] |
| 5.33 | 5.61 | Cc1ccc(S(N)(=O)=O)cc1 [P-TOLUENESULFONAMIDE] |
| 7.20 | 7.52 | CC1(C)O[C@@H]2[C@@H](CO[C@@]3(COS(N)(=O)=O)OC(C)(C)O[C@@H]23)O1 [TOPIRAMATE] |
